Data from patent US8178668B2, “2-aminopyridine kinase inhibitors” (OSI Pharmaceuticals, LLC, priority 2008, dated 2012).
Structures can show the parent of a compound that is named as a salt.

Assays:
[1] = target: RON (human) (Homo sapiens, UniProt Q04912); test: RON kinase AlphaScreen assay (Km of ATP); type: biochemical; conditions: ATP at Km; at least duplicate experiments
Method in brief: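 Human RON phosphorylated biotinylated poly(Glu,Tyr) (200 ng/μL) at Km ATP in 50 mM HEPES pH 7.4, 12.5 mM MgCl2, 1% glycerol, 0.334 mM vanadate, 1% DMSO. Reaction ran 30 min at RT after enzyme addition. Product was detected by AlphaScreen with PT66 beads after 1 h.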

[2] = target: MET (human) (Homo sapiens, UniProt P08581); test: MET kinase AlphaScreen assay (Km of ATP); type: biochemical; conditions: ATP at Km; at least duplicate experiments
Sequence of MET (human) (P08581 25-1390): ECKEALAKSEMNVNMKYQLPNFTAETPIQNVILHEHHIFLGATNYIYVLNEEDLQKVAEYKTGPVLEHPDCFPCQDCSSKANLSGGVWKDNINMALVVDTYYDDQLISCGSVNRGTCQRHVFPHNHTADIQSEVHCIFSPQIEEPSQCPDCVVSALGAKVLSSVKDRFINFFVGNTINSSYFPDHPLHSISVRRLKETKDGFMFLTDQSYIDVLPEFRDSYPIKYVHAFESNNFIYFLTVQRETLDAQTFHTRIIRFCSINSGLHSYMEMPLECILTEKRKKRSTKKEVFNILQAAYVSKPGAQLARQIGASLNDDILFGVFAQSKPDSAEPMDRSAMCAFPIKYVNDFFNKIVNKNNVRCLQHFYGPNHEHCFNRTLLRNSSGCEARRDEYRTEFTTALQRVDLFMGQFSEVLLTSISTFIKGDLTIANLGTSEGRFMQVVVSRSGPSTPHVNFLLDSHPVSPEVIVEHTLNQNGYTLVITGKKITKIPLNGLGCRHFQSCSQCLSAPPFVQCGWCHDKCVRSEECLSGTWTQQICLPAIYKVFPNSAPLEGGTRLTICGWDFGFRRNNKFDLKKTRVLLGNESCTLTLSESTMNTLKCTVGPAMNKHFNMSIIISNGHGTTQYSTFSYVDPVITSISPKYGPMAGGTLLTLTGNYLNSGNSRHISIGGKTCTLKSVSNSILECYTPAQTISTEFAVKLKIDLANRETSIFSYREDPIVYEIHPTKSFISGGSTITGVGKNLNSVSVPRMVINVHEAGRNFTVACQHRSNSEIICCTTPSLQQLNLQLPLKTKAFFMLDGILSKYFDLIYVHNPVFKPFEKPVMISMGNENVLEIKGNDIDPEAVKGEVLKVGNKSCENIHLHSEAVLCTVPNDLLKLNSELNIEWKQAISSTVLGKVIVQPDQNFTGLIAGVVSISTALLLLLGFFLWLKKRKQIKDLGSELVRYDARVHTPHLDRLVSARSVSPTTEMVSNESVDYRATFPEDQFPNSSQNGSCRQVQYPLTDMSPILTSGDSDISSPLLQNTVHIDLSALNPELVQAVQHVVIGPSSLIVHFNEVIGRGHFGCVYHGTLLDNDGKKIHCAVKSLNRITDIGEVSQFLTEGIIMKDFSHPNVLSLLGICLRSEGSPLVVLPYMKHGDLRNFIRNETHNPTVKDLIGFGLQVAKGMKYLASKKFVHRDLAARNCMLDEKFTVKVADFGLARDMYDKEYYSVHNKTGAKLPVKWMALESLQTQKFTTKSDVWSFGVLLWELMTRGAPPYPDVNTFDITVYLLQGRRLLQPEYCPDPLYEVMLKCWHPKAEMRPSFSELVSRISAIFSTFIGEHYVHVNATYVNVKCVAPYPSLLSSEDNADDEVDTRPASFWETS
Method in brief: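 Biotinylated poly(Glu,Tyr) (200 ng/μL) phosphorylated by MET with ATP at an enzyme-optimized level, in 50 mM HEPES pH 7.4 with Mg2+/Mn2+ and vanadate, 1% DMSO. Reaction runs 60 min at RT. PT66 AlphaScreen donor/acceptor beads are added and signal is read after 1 h.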

Sequence of RON (human) (Q04912 25-1400): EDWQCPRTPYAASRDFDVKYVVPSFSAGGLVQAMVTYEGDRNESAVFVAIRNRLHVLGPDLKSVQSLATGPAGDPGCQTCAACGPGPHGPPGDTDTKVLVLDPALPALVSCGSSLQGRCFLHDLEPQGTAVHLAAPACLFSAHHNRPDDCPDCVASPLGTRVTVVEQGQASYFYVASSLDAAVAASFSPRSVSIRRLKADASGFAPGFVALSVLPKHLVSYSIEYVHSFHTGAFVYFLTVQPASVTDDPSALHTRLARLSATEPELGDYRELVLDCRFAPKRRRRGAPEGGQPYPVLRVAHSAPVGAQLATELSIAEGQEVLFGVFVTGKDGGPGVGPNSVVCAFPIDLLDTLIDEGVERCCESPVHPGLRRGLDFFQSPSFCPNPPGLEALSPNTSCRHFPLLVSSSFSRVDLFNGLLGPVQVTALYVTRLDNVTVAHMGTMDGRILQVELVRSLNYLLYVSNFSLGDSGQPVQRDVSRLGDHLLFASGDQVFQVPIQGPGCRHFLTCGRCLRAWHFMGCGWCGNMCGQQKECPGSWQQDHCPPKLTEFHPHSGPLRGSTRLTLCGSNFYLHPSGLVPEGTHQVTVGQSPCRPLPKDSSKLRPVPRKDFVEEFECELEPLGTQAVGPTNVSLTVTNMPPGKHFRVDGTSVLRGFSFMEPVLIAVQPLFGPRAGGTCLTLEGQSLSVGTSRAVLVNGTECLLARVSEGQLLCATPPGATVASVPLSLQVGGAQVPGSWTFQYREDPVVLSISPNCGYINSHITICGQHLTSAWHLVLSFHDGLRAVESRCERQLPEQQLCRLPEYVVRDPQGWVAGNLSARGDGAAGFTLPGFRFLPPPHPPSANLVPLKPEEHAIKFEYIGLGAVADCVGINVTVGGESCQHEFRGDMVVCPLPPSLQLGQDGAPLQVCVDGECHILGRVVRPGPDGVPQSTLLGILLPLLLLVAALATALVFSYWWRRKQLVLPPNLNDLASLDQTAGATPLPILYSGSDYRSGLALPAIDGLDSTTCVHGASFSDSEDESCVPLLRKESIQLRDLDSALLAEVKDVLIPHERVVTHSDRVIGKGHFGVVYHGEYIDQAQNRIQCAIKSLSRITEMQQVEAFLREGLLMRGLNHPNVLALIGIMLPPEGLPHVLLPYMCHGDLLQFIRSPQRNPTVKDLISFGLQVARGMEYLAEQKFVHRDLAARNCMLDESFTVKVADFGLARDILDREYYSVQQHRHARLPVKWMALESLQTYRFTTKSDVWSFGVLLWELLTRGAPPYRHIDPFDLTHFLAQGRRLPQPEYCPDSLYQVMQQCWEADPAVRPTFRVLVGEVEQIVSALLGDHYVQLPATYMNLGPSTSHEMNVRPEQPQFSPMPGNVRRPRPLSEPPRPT

| IC50 [1] [nM] | IC50 [2] [nM] | Structure (SMILES) |
| --- | --- | --- |
| 100 to 1000 | 100 to 1000 | Nc1ncc(-c2cnn(C3CCN(CC(=O)N4CCC4)CC3)c2)cc1-c1nc2ccccc2s1 [Example 165, 2-{4-[4-(6-Amino-5-benzothiazol-2-ylpyridin-3-yl)-pyrazol-1-yl]-piperidin-1-yl}-1-azetidin-1-ylethanone] |
| 100 to 1000 | ≤ 100 | Nc1ncc(-c2cnn(C3CCN(CC(=O)N4CCCC4)CC3)c2)cc1-c1nc2ccccc2s1 [Example 166, 2-{4-[4-(6-Amino-5-benzothiazol-2-ylpyridin-3-yl)-pyrazol-1-yl]-piperidin-1-yl}-1-pyrrolidin-1-ylethanone] |
| 100 to 1000 | ≤ 100 | Nc1ncc(-c2cnn(C3CCN(CC(=O)N4CCC(O)C4)CC3)c2)cc1-c1nc2ccccc2s1 (stereo not drawn) [Example 167, 2-{4-[4-(6-Amino-5-benzothiazol-2-ylpyridin-3-yl)-pyrazol-1-yl]-piperidin-1-yl}-1-(3-hydroxypyrrolidin-1-yl)ethanone] |
| 100 to 1000 | 100 to 1000 | Nc1ncc(-c2cnn(C3CCN(CC(=O)N4CCCCC4)CC3)c2)cc1-c1nc2ccccc2s1 [Example 168, 2-{4-[4-(6-Amino-5-benzothiazol-2-ylpyridin-3-yl)-pyrazol-1-yl]-piperidin-1-yl}-1-piperidin-1-ylethanone] |
| 100 to 1000 | ≤ 100 | Nc1ncc(-c2cnn(C3CCN(CC(=O)N4CCC(O)CC4)CC3)c2)cc1-c1nc2ccccc2s1 [Example 169, 2-{4-[4-(6-Amino-5-benzothiazol-2-ylpyridin-3-yl)-pyrazol-1-yl]-piperidin-1-yl}-1-(4-hydroxypiperidin-1-yl)ethanone] |
| 100 to 1000 | ≤ 100 | Nc1ncc(-c2cnn(C3CCN(CC(=O)N4CCOCC4)CC3)c2)cc1-c1nc2ccccc2s1 [Example 170, 2-{4-[4-(6-Amino-5-benzothiazol-2-ylpyridin-3-yl)-pyrazol-1-yl]-piperidin-1-yl}-1-morpholin-4-ylethanone] |
| 100 to 1000 | ≤ 100 | Nc1ncc(-c2cnn(C3CCN(CC(=O)NCCO)CC3)c2)cc1-c1nc2ccccc2s1 [Example 171, 2-{4-[4-(6-Amino-5-benzothiazol-2-ylpyridin-3-yl)-pyrazol-1-yl]-piperidin-1-yl}-N-(2-hydroxyethyl)-acetamide] |
| 100 to 1000 | 100 to 1000 | COCCNC(=O)CN1CCC(n2cc(-c3cnc(N)c(-c4nc5ccccc5s4)c3)cn2)CC1 [Example 172, 2-{4-[4-(6-Amino-5-benzothiazol-2-ylpyridin-3-yl)-pyrazol-1-yl]-piperidin-1-yl}-N-(2-methoxyethyl)-acetamide] |
| 100 to 1000 | 100 to 1000 | COCCN(CCOC)C(=O)CN1CCC(n2cc(-c3cnc(N)c(-c4nc5ccccc5s4)c3)cn2)CC1 [Example 173, 2-{4-[4-(6-Amino-5-benzothiazol-2-ylpyridin-3-yl)-pyrazol-1-yl]-piperidin-1-yl}-N,N-bis-(2-methoxyethyl)-acetamide] |
| 1000 to 20000 | ≤ 100 | Nc1ncc(-c2cnn([C@@H]3CN[C@@H](C(=O)O)C3)c2)cc1-c1nc2ccccc2s1 [Example 174, (2R,4S)-4-[4-(6-Amino-5-benzothiazol-2-ylpyridin-3-yl)-pyrazol-1-yl]-pyrrolidine-2-carboxylic acid] |
| 100 to 1000 | 100 to 1000 | CN(C)C(=O)[C@H]1C[C@H](n2cc(-c3cnc(N)c(-c4nc5ccccc5s4)c3)cn2)CN1 [Example 175, (2R,4S)-4-[4-(6-Amino-5-benzothiazol-2-ylpyridin-3-yl)-pyrazol-1-yl]-pyrrolidine-2-carboxylic acid dimethylamide] |
| 100 to 1000 | 100 to 1000 | Nc1ncc(-c2cnn([C@@H]3CN[C@@H](C(=O)N4CCCC4)C3)c2)cc1-c1nc2ccccc2s1 [Example 176, {(2R,4S)-4-[4-(6-Amino-5-benzothiazol-2-ylpyridin-3-yl)-pyrazol-1-yl]-pyrrolidin-2-yl}-pyrrolidin-1-ylmethanone] |
| 100 to 1000 | ≤ 100 | Nc1ncc(-c2cnn([C@@H]3CN[C@@H](C(=O)N4CCC(O)C4)C3)c2)cc1-c1nc2ccccc2s1 (stereo partly drawn) [Example 177, {(2R,4S)-4-[4-(6-Amino-5-benzothiazol-2-ylpyridin-3-yl)-pyrazol-1-yl]-pyrrolidin-2-yl}-(3-hydroxypyrrolidin-1-yl)methanone] |
| 100 to 1000 | 100 to 1000 | Nc1ncc(-c2cnn([C@@H]3CN[C@@H](C(=O)N4CCCCC4)C3)c2)cc1-c1nc2ccccc2s1 [Example 178, {(2R,4S)-4-[4-(6-Amino-5-benzothiazol-2-ylpyridin-3-yl)-pyrazol-1-yl]-pyrrolidin-2-yl}-piperidin-1-ylmethanone] |
| 100 to 1000 | ≤ 100 | Nc1ncc(-c2cnn([C@@H]3CN[C@@H](C(=O)N4CCOCC4)C3)c2)cc1-c1nc2ccccc2s1 [Example 179, {(2R,4S)-4-[4-(6-Amino-5-benzothiazol-2-ylpyridin-3-yl)-pyrazol-1-yl]-pyrrolidin-2-yl}-morpholin-4-ylmethanone] |
| 100 to 1000 | ≤ 100 | Nc1ncc(-c2cnn(C3CNC3)c2)cc1-c1nc2ccccc2s1 [Example 181, 5-(1-Azetidin-3-yl-1H-pyrazol-4-yl)-3-benzothiazol-2-ylpyridin-2-ylamine trifluoroacetate] |
| 1000 to 20000 | 100 to 1000 | CN1CCN(C(=O)c2ccc(-c3cnc(N)c(-c4nc5ccccc5s4)c3)cc2)CC1 [Example 182, [4-(6-Amino-5-benzothiazol-2-ylpyridin-3-yl)phenyl]-(4-methylpiperazin-1-yl)methanone] |
| 1000 to 20000 | 1000 to 20000 | CN(C)C(=O)c1ccc(-c2cnc(N)c(-c3nc4ccccc4s3)c2)cc1 [Example 183, 4-(6-Amino-5-benzothiazol-2-ylpyridin-3-yl)-N,N-dimethylbenzamide] |
| 1000 to 20000 | 1000 to 20000 | CN1CCN(C(=O)c2cccc(-c3cnc(N)c(-c4nc5ccccc5s4)c3)c2)CC1 [Example 184, [3-(6-Amino-5-benzothiazol-2-ylpyridin-3-yl)phenyl]-(4-methylpiperazin-1-yl)methanone] |
| 1000 to 20000 | 100 to 1000 | CN(C)CCNC(=O)c1ccc(-c2cnc(N)c(-c3nc4ccccc4s3)c2)cc1 [Example 185, 4-(6-Amino-5-benzothiazol-2-ylpyridin-3-yl)-N-(2-dimethylaminoethyl)benzamide] |
| > 20000 | 1000 to 20000 | CN(C)C(=O)c1cccc(-c2cnc(N)c(-c3nc4ccccc4s3)c2)c1 [Example 186, 3-(6-Amino-5-benzothiazol-2-ylpyridin-3-yl)-N,N-dimethylbenzamide] |
| 1000 to 20000 | 1000 to 20000 | CN(C)CCNC(=O)c1cccc(-c2cnc(N)c(-c3nc4ccccc4s3)c2)c1 [Example 187, 3-(6-Amino-5-benzothiazol-2-ylpyridin-3-yl)-N-(2-dimethylaminoethyl)benzamide] |
| 1000 to 20000 | 1000 to 20000 | CN(C)CCCOc1ccc(-c2cnc(N)c(-c3nc4ccccc4s3)c2)cn1 [Example 188, 5-Benzothiazol-2-yl-6′-(3-dimethylaminopropoxy)-[3,3′]bipyridinyl-6-ylamine] |
| 1000 to 20000 | 1000 to 20000 | Nc1ncc(-c2ccc(C(=O)N3CCOCC3)cc2)cc1-c1nc2ccccc2s1 [Example 189, [4-(6-Amino-5-benzothiazol-2-ylpyridin-3-yl)phenyl]morpholin-4-ylmethanone] |
